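How tested: cells in 96-well plates exposed to compound for 48 hours at five concentrations. GI50 = concentration required for 50% inhibition of growth.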 The source made the active and inactive calls. Cut-off read from the data, not from the text of the source: active = GI50 up to about 1.1 µM and inactive = higher.
Legend:
Assay in all cases: DTP human tumour cell line panel, 48 h
CAKI-1 = system: CAKI-1
K562 = system: K562
HL-60 = system: HL-60
CCRF-CEM = system: CCRF-CEM
NCI-H522 = system: NCI-H522
DMS-273 = system: DMS-273
HCT-15 = system: HCT-15
M14 = system: M14
SK-MEL-28 = system: SK-MEL-28
OVCAR-8 = system: OVCAR-8
HCT-116 = system: HCT-116
EKVX = system: EKVX
SN12C = system: SN12C
KM-20L2 = system: KM-20L2
DLD-1 = system: DLD-1
ACHN = system: ACHN
SW-620 = system: SW-620
SNB-75 = system: SNB-75
IGROV-1 = system: IGROV-1
M19-MEL = system: M19-MEL
NCI-H23 = system: NCI-H23
LOX IMVI = system: LOX IMVI
KM12 = system: KM12
LXFL 529 = system: LXFL 529
TK-10 = system: TK-10
Malme-3M = system: Malme-3M
HCC 2998 = system: HCC 2998
XF498 = system: XF498
U-251 = system: U-251
OVCAR-4 = system: OVCAR-4
RXF 393 = system: RXF 393
A549 = system: A549
SK-OV-3 = system: SK-OV-3
A498 = system: A498
HT-29 = system: HT-29
NCI-H460 = system: NCI-H460
HOP-18 = system: HOP-18
HOP-62 = system: HOP-62
OVCAR-5 = system: OVCAR-5
SF-539 = system: SF-539
RPMI-8226 = system: RPMI-8226
SF-295 = system: SF-295
SF-268 = system: SF-268
COLO 205 = system: COLO 205
SK-MEL-2 = system: SK-MEL-2
SK-MEL-5 = system: SK-MEL-5
SNB-19 = system: SNB-19
MOLT-4 = system: MOLT-4
HOP-92 = system: HOP-92
UACC-62 = system: UACC-62
786-0 = system: 786-0
DMS-114 = system: DMS-114
NCI-H226 = system: NCI-H226
OVCAR-3 = system: OVCAR-3
UACC-257 = system: UACC-257
UO-31 = system: UO-31
SNB-78 = system: SNB-78
SR = system: SR

Measured: GI50

Cc1cc(=O)oc2cc(OCc3nc4ccccc4c(=O)[nH]3)ccc12
inactive: CAKI-1 > 100 µM | K562 > 100 µM | HL-60 > 100 µM | CCRF-CEM > 100 µM | NCI-H522 > 100 µM | DMS-273 > 100 µM | M14 > 100 µM | SK-MEL-28 > 100 µM | OVCAR-8 > 100 µM | HCT-116 > 100 µM | EKVX > 100 µM | SN12C > 100 µM | KM-20L2 > 100 µM | DLD-1 > 100 µM | ACHN > 100 µM | SW-620 > 100 µM | SNB-75 > 100 µM | IGROV-1 > 100 µM | M19-MEL > 100 µM | NCI-H23 > 100 µM | LOX IMVI > 100 µM | KM12 > 100 µM | LXFL 529 > 100 µM | TK-10 > 100 µM | Malme-3M > 100 µM | HCC 2998 > 100 µM | XF498 > 100 µM | U-251 > 100 µM | OVCAR-4 > 100 µM | RXF 393 > 100 µM | A549 > 100 µM | SK-OV-3 > 100 µM | A498 > 100 µM | HT-29 > 100 µM | NCI-H460 > 100 µM | HOP-18 > 100 µM | HOP-62 > 100 µM | OVCAR-5 > 100 µM | SF-539 > 100 µM | RPMI-8226 > 100 µM | SF-295 > 100 µM | SF-268 > 100 µM | COLO 205 > 100 µM | SK-MEL-2 > 100 µM | SK-MEL-5 > 100 µM | SNB-19 > 100 µM | MOLT-4 > 100 µM | HOP-92 > 100 µM | UACC-62 > 100 µM | 786-0 > 100 µM | DMS-114 > 100 µM | NCI-H226 > 100 µM | OVCAR-3 > 100 µM
> 100 µM: HCT-15

O=C(CSc1nnc(-c2ccc(/N=C\c3ccc(Cl)cc3)cc2)o1)Nc1ccc([N+](=O)[O-])cc1
inactive: K562 21.2 µM | HL-60 26.4 µM | CCRF-CEM 18.5 µM | NCI-H522 20.9 µM | DMS-273 16.5 µM | M14 19.4 µM | SK-MEL-28 18.5 µM | OVCAR-8 37.6 µM | UACC-257 21.5 µM | HCT-116 2.58 µM | EKVX > 100 µM | SN12C 21.7 µM | KM-20L2 27.2 µM | ACHN 11.9 µM | SW-620 17.1 µM | SNB-75 25.4 µM | M19-MEL 17.1 µM | NCI-H23 19.4 µM | LOX IMVI 10.6 µM | UO-31 18.4 µM | KM12 > 10 µM | LXFL 529 15.8 µM | TK-10 51.4 µM | Malme-3M 92.3 µM | XF498 22.9 µM | U-251 19.3 µM | OVCAR-4 26.2 µM | RXF 393 19.6 µM | A549 39.9 µM | SK-OV-3 35.9 µM | HT-29 19.5 µM | NCI-H460 36.4 µM | HOP-18 29 µM | HOP-62 32.1 µM | SNB-78 20 µM | SR 19 µM | RPMI-8226 2.45 µM | SF-295 30.2 µM | SF-268 24.3 µM | COLO 205 35.2 µM | SK-MEL-2 25.4 µM | SK-MEL-5 18.4 µM | SNB-19 16.6 µM | MOLT-4 15.7 µM | UACC-62 18.9 µM | 786-0 19.8 µM | DMS-114 16.2 µM | NCI-H226 21.9 µM
18.4 µM: HCT-15

O=C(O)CNS(=O)(=O)c1ccc(NC(=O)c2ccccc2[N+](=O)[O-])cc1
inactive: CAKI-1 > 100 µM | K562 > 100 µM | HL-60 > 100 µM | CCRF-CEM > 100 µM | NCI-H522 > 100 µM | DMS-273 > 100 µM | M14 > 100 µM | SK-MEL-28 > 100 µM | OVCAR-8 > 100 µM | UACC-257 > 100 µM | EKVX > 100 µM | SN12C > 100 µM | KM-20L2 > 100 µM | DLD-1 > 100 µM | ACHN > 100 µM | SW-620 > 100 µM | SNB-75 > 100 µM | IGROV-1 > 100 µM | M19-MEL > 100 µM | NCI-H23 > 100 µM | LOX IMVI > 100 µM | UO-31 > 100 µM | LXFL 529 > 100 µM | TK-10 > 100 µM | Malme-3M > 100 µM | XF498 > 100 µM | U-251 > 100 µM | OVCAR-4 > 100 µM | RXF 393 > 100 µM | A549 > 100 µM | SK-OV-3 > 100 µM | A498 > 100 µM | HT-29 > 100 µM | NCI-H460 > 100 µM | HOP-18 > 100 µM | OVCAR-5 > 100 µM | SF-539 > 100 µM | RPMI-8226 > 100 µM | SF-268 > 100 µM | COLO 205 > 100 µM | SK-MEL-2 > 100 µM | SK-MEL-5 > 100 µM | SNB-19 > 100 µM | MOLT-4 > 100 µM | HOP-92 > 100 µM | UACC-62 > 100 µM | 786-0 > 100 µM
> 100 µM: HCT-15

Clc1ccc(C[P+]2(c3ccccc3)CCCCC2)cc1.[O-][Cl+3]([O-])([O-])[O-]
inactive: K562 78.2 µM | HL-60 24.4 µM | CCRF-CEM 75.9 µM | NCI-H522 28.8 µM | DMS-273 57.5 µM | M14 53.8 µM | SK-MEL-28 62.8 µM | OVCAR-8 > 100 µM | UACC-257 28.2 µM | HCT-116 60.1 µM | EKVX > 100 µM | SN12C > 100 µM | KM-20L2 54.6 µM | DLD-1 > 100 µM | ACHN > 100 µM | SW-620 80 µM | SNB-75 37.1 µM | IGROV-1 > 100 µM | M19-MEL 28.7 µM | NCI-H23 85.5 µM | LOX IMVI 77.3 µM | UO-31 > 100 µM | KM12 77.4 µM | LXFL 529 37.1 µM | TK-10 77.8 µM | Malme-3M 58.5 µM | HCC 2998 43.6 µM | XF498 44 µM | U-251 45.5 µM | RXF 393 > 100 µM | A549 > 100 µM | SK-OV-3 > 100 µM | A498 > 100 µM | HT-29 32 µM | NCI-H460 > 100 µM | HOP-18 > 100 µM | HOP-62 > 100 µM | OVCAR-5 > 100 µM | SF-539 > 100 µM | SNB-78 52.4 µM | SR 48.6 µM | RPMI-8226 32.2 µM | SF-295 > 100 µM | COLO 205 17.9 µM | SK-MEL-2 48.6 µM | SK-MEL-5 20.3 µM | SNB-19 66.8 µM | MOLT-4 86.5 µM | UACC-62 37.2 µM | 786-0 > 100 µM | DMS-114 50.4 µM | NCI-H226 > 100 µM | OVCAR-3 44.7 µM
> 100 µM: HCT-15
